Results published in the CheMixHub viscosity set.

Assay: xn = mol fraction of the nth substance listed

CC(=O)CC(C)=O + CCCCO
303.15 K, 101 kPa
Conditions	viscosity [mPa·s]
x1 = 0.0509	1.941
x1 = 0.1003	1.7
x1 = 0.3007	1.142
x1 = 0.5004	0.887
x1 = 0.7	0.751
x1 = 0.8998	0.692
x1 = 0.9504	0.678

CCCCN(CCCC)CCCC + CCCCO
viscosity [mPa·s]
Conditions	303.15 K	313.15 K
101 kPa, x1 = 0.007767	2.245	–
101 kPa, x1 = 0.01457	2.236	–
101 kPa, x1 = 0.02285	2.226	–
101 kPa, x1 = 0.03362	2.211	–
101 kPa, x1 = 0.04436	2.197	–
101 kPa, x1 = 0.04946	2.191	–
101 kPa, x1 = 0.05954	2.178	–
101 kPa, x1 = 0.07271	2.16	–
101 kPa, x1 = 0.08924	2.138	–
101.3 kPa, x1 = 0.0942	2.159	1.71
101.3 kPa, x1 = 0.1897	2.028	1.608
101.3 kPa, x1 = 0.3149	1.877	1.481
101.3 kPa, x1 = 0.4192	1.766	1.393
101.3 kPa, x1 = 0.5187	1.65	1.311
101.3 kPa, x1 = 0.618	1.542	1.231
101.3 kPa, x1 = 0.7149	1.448	1.154
101.3 kPa, x1 = 0.8007	1.365	1.102
101.3 kPa, x1 = 0.9031	1.256	1.047

CCCCOC(=O)c1ccccc1C(=O)OCCCC + CCCCO
303.15 K, 101.33 kPa
Conditions	viscosity [mPa·s]
x1 = 0.1016	2.585
x1 = 0.1991	3.095
x1 = 0.2997	3.757
x1 = 0.4016	4.553
x1 = 0.5004	5.431
x1 = 0.5969	6.463
x1 = 0.6966	7.645
x1 = 0.8044	9.216
x1 = 0.8662	10.27

CN(C)c1ccccc1 + CCCCO
303.15 K, 101 kPa
Conditions	viscosity [mPa·s]
x1 = 0.0489	2.2
x1 = 0.0742	2.187
x1 = 0.1249	2.156
x1 = 0.1802	2.12
x1 = 0.2362	2.079
x1 = 0.265	2.056
x1 = 0.2944	2.032
x1 = 0.3549	1.978
x1 = 0.419	1.915
x1 = 0.4854	1.844
x1 = 0.5905	1.722
x1 = 0.7423	1.526
x1 = 0.9099	1.295

C=CC#N + CCCCOC(C)=O
viscosity [mPa·s]
Conditions	298.15 K	303.15 K	308.15 K
101.3 kPa, x1 = 0.0988	–	0.6248	–
101.3 kPa, x1 = 0.2033	–	0.5998	–
101.3 kPa, x1 = 0.3022	–	0.5737	–
101.3 kPa, x1 = 0.401	–	0.5437	–
101.3 kPa, x1 = 0.4962	–	0.5133	–
101.3 kPa, x1 = 0.5941	–	0.4775	–
101.3 kPa, x1 = 0.6991	–	0.4364	–
101.3 kPa, x1 = 0.7966	–	0.3951	–
101.3 kPa, x1 = 0.8992	–	0.3527	–
101.33 kPa, x1 = 0.099	0.651	0.607	0.571
101.33 kPa, x1 = 0.1971	0.626	0.582	0.547
101.33 kPa, x1 = 0.2999	0.596	0.553	0.522
101.33 kPa, x1 = 0.404	0.561	0.524	0.494
101.33 kPa, x1 = 0.5006	0.526	0.49	0.464
101.33 kPa, x1 = 0.5992	0.488	0.458	0.433
101.33 kPa, x1 = 0.7004	0.449	0.421	0.398
101.33 kPa, x1 = 0.8014	0.412	0.384	0.365
101.33 kPa, x1 = 0.9031	0.374	0.349	0.33

CCCCN(CCCC)CCCC + CCCCOCCO
viscosity [mPa·s], 100 kPa
Conditions	298.15 K	303.15 K	308.15 K
x2 = 0.05	1.31	1.19	1.12
x2 = 0.1004	1.37	1.23	1.15
x2 = 0.1502	1.43	1.28	1.19
x2 = 0.2006	1.49	1.33	1.23
x2 = 0.2999	1.62	1.43	1.32
x2 = 0.3999	1.76	1.54	1.43
x2 = 0.5046	1.93	1.69	1.55
x2 = 0.6	2.1	1.83	1.67
x2 = 0.7	2.29	1.99	1.8
x2 = 0.8	2.5	2.16	1.96
x2 = 0.8997	2.7	2.36	2.14
x2 = 0.9498	2.79	2.43	2.21

CN(C)c1ccccc1 + CCCCOCCO
viscosity [mPa·s], 101.3 kPa
Conditions	x2 = 0.0991	x2 = 0.2007	x2 = 0.3163	x2 = 0.3988	x2 = 0.4955	x2 = 0.5977	x2 = 0.6989	x2 = 0.7971	x2 = 0.8968
298 K	1.298	1.369	1.479	1.586	1.715	1.88	2.076	2.281	2.555
303 K	1.184	1.245	1.338	1.42	1.524	1.666	1.825	2.002	2.23
308 K	1.096	1.14	1.221	1.291	1.384	1.501	1.643	1.79	1.991
313 K	1.022	1.063	1.129	1.186	1.266	1.369	1.486	1.617	1.781
318 K	0.947	0.984	1.041	1.089	1.156	1.217	1.346	1.459	1.601

O=C1c2ccccc2C(=O)C1(O)O + CCCC[N+](CCCC)(CCCC)CCCC.O=S(=O)([O-])O
Conditions	viscosity [mPa·s]
323.15 K, 100 kPa, x2 = 0.571	48500

C=CC#N + CCCO
viscosity [mPa·s], 101.33 kPa
Conditions	x1 = 0.1031	x1 = 0.203	x1 = 0.307	x1 = 0.4079	x1 = 0.5104	x1 = 0.6066	x1 = 0.7057	x1 = 0.8002	x1 = 0.9032
298.15 K	1.409	1.074	0.85	0.688	0.578	0.497	0.435	0.393	0.36
303.15 K	1.264	0.975	0.778	0.635	0.538	0.465	0.412	0.373	0.343
308.15 K	1.139	0.888	0.71	0.59	0.503	0.438	0.389	0.355	0.328

CC(=O)CC(C)=O + CCCO
303.15 K, 101 kPa
Conditions	viscosity [mPa·s]
x1 = 0.05	1.453
x1 = 0.1	1.271
x1 = 0.2999	0.922
x1 = 0.4999	0.769
x1 = 0.6999	0.697
x1 = 0.8994	0.673
x1 = 0.9487	0.667

CN(C)c1ccccc1 + CCCO
viscosity [mPa·s]
Conditions	303.15 K	308.15 K	313.15 K	318.15 K	323.15 K
101 kPa, x1 = 0.0503	1.685	–	–	–	–
101 kPa, x1 = 0.1049	1.625	–	–	–	–
101 kPa, x1 = 0.1825	1.552	–	–	–	–
101 kPa, x1 = 0.2575	1.482	–	–	–	–
101 kPa, x1 = 0.3423	1.413	–	–	–	–
101 kPa, x1 = 0.3929	1.377	–	–	–	–
101 kPa, x1 = 0.4121	1.365	–	–	–	–
101 kPa, x1 = 0.4703	1.328	–	–	–	–
101 kPa, x1 = 0.5523	1.29	–	–	–	–
101 kPa, x1 = 0.6229	1.265	–	–	–	–
101 kPa, x1 = 0.7221	1.242	–	–	–	–
101 kPa, x1 = 0.8096	1.225	–	–	–	–
101 kPa, x1 = 0.9023	1.198	–	–	–	–
101.33 kPa, x1 = 0.1011	1.587	1.335	1.205	1.091	0.9913
101.33 kPa, x1 = 0.1989	1.345	1.214	1.1	1.005	0.9196
101.33 kPa, x1 = 0.2994	1.249	1.134	1.033	0.9491	0.8709
101.33 kPa, x1 = 0.4015	1.194	1.09	0.9974	0.9328	0.8513
101.33 kPa, x1 = 0.4992	1.153	1.057	0.9763	0.9019	0.8384
101.33 kPa, x1 = 0.598	1.126	1.034	0.9608	0.8881	0.8254
101.33 kPa, x1 = 0.7024	1.117	1.044	0.965	0.8981	0.8357
101.33 kPa, x1 = 0.798	1.126	1.037	0.9602	0.8961	0.8364
101.33 kPa, x1 = 0.9026	1.154	1.071	0.9947	0.9284	0.8751

C=CC#N + CCCOC(C)=O
viscosity [mPa·s], 101.33 kPa
Conditions	x1 = 0.1052	x1 = 0.1835	x1 = 0.2994	x1 = 0.4057	x1 = 0.4982	x1 = 0.6097	x1 = 0.7023	x1 = 0.8019	x1 = 0.901
298.15 K	0.54	0.524	0.5	0.479	0.459	0.435	0.411	0.387	0.362
303.15 K	0.504	0.489	0.47	0.452	0.434	0.411	0.391	0.368	0.345
308.15 K	0.472	0.46	0.442	0.428	0.411	0.392	0.372	0.352	0.331

C=CC#N + CCO
viscosity [mPa·s], 101.33 kPa
Conditions	x1 = 0.1008	x1 = 0.1009	x1 = 0.2017	x1 = 0.3022	x1 = 0.403	x1 = 0.5025	x1 = 0.6044	x1 = 0.7032	x1 = 0.8006	x1 = 0.8993
298.15 K	–	0.859	0.704	0.593	0.513	0.458	0.415	0.384	0.363	0.348
303.15 K	–	0.787	0.648	0.551	0.48	0.431	0.392	0.364	0.345	0.332
308.15 K	0.724	–	0.602	0.513	0.451	0.405	0.371	0.347	0.329	0.318

CC(=O)CC(C)=O + CCO
303.15 K, 101 kPa
Conditions	viscosity [mPa·s]
x1 = 0.05	0.896
x1 = 0.0997	0.825
x1 = 0.3	0.702
x1 = 0.5	0.655
x1 = 0.6989	0.644
x1 = 0.9	0.651
x1 = 0.948	0.657

CC(C)(N)CO + CCO
313.15 K, 100 kPa
Conditions	viscosity [mPa·s]
x1 = 0.03	0.91
x1 = 0.054	1.05
x1 = 0.11	1.3
x1 = 0.26	2.32

CCCCC(C)O (centres undefined) + CCO
298.15 K, 101.33 kPa
Conditions	viscosity [mPa·s]
x2 = 0.1065	3.783
x2 = 0.2102	3.485
x2 = 0.3167	3.115
x2 = 0.4096	2.827
x2 = 0.5036	2.512
x2 = 0.6033	2.16
x2 = 0.7079	1.836
x2 = 0.8023	1.572
x2 = 0.9063	1.301

CCCCOC(=O)c1ccccc1C(=O)OCCCC + CCO
303.15 K, 101.33 kPa
Conditions	viscosity [mPa·s]
x1 = 0.0982	1.555
x1 = 0.1991	2.302
x1 = 0.4046	4.211
x1 = 0.5046	5.31
x1 = 0.5634	6.002
x1 = 0.694	7.761
x1 = 0.807	9.476
x1 = 0.8877	10.91
x1 = 0.9316	11.68
